# Experimental data as given in patent US9393232B2 (BeiGene, Ltd., priority 2013, dated 2016).
# Like-named read-outs stand apart in the source and are kept apart here.
# Key:
# [1] = test system: MV4-11; experiment: MV4-11 (3 Days) EC50; assay type: cell-based
# [2] = target: Recombinant human BRD4(1-477) (Homo sapiens (Human), UniProt O60885); experiment: BRD4 TR-FRET biochemical IC50 assay; assay type: binding; settings: TR-FRET, tetra-acetylated histone peptide; read-out: BRD4 IC50
SMILES,"EC50 ([1]; Homo sapiens, MV4-11, 72 h)",IC50 [2],EC50 [1],"EC50 ([1]; Homo sapiens, 72 h)"
"Cc1noc(C)c1-c1ccc2c(c1)C(N[C@@H](CO)C(C)C)(c1ccccc1)C(=O)N2 (single isomer, unassigned) [Compound 2.11b]",180 nM,150 nM,,
"Cc1noc(C)c1-c1ccc2c(c1)C(N[C@H](CO)C(C)C)(c1ccccc1)C(=O)N2 (single isomer, unassigned) [Compound 2.12a]",144 nM,89 nM,,
"Cc1noc(C)c1-c1ccc2c(c1)C(NC[C@@H](C)O)(c1ccccc1)C(=O)N2 (single isomer, unassigned) [Compound 2.13b]",140 nM,81 nM,,
"Cc1noc(C)c1-c1ccc2c(c1)C(NC[C@H](C)O)(c1ccccc1)C(=O)N2 (single isomer, unassigned) [Compound 2.14a]",115 nM,78 nM,,
"Cc1noc(C)c1-c1ccc2c(c1)C(N[C@H](CO)C(C)C)(C1CCCCC1)C(=O)N2 (single isomer, unassigned) [Compound 2.19b]",282 nM,170 nM,,
"Cc1noc(C)c1-c1ccc2c(c1)C(N[C@@H](CO)C(C)C)(C1CCCCC1)C(=O)N2 (single isomer, unassigned) [Compound 2.20b]",377 nM,350 nM,,
"COC(=O)[C@@H]1C[C@@H](O)CN1C1(c2ccccc2)C(=O)Nc2ccc(-c3c(C)noc3C)cc21 (single isomer, unassigned) [Compound 2.50a]",681 nM,460 nM,,
"Cc1noc(C)c1-c1ccc2c(c1)C(c1ccsc1)(N1CCC[C@@H](N)C1)C(=O)N2 (single isomer, unassigned) [Compound 4.6a]",,30 nM,102 nM,
"Cc1noc(C)c1-c1ccc2c(c1)C(c1ccsc1)(N1CCC[C@@H](N)C1)C(=O)N2 (single isomer, unassigned) [Compound 4.6b]",,24 nM,35 nM,
"Cc1noc(C)c1-c1ccc2c(c1)C(c1ccsc1)(N1CCC[C@H](N)C1)C(=O)N2 (single isomer, unassigned) [Compound 4.7a]",35 nM,24 nM,,
"Cc1noc(C)c1-c1ccc2c(c1)C(c1ccsc1)(N1CCC[C@H](N)C1)C(=O)N2 (single isomer, unassigned) [Compound 4.7b]",34 nM,8 nM,,
"Cc1noc(C)c1-c1ccc2c(c1)C(O)(c1ccccc1)C(=O)N2 (stereo not drawn) [Compound 1.1, 5-(3,5-dimethylisoxazol-4-yl)-3-hydroxy-3-phenylindolin-2-one]",,51 nM,,124 nM
"Cc1noc(C)c1-c1ccc2c(c1)C(O)(c1ccc(Cl)cc1)C(=O)N2 (stereo not drawn) [Compound 1.2, 3-(4-chlorophenyl)-5-(3,5-dimethylisoxazol-4-yl)-3-hydroxyindolin-2-one]",,260 nM,,364 nM
"Cc1noc(C)c1-c1ccc2c(c1)C(O)(c1cccc(Cl)c1)C(=O)N2 (stereo not drawn) [Compound 1.3, 3-(3-chlorophenyl)-5-(3,5-dimethylisoxazol-4-yl)-3-hydroxyindolin-2-one]",,380 nM,,369 nM
"Cc1noc(C)c1-c1ccc2c(c1)C(O)(c1ccc(F)cc1)C(=O)N2 (stereo not drawn) [Compound 1.4, 5-(3,5-dimethylisoxazol-4-yl)-3-(4-fluorophenyl)-3-hydroxyindolin-2-one]",,100 nM,,181 nM
"Cc1ccc(C2(O)C(=O)Nc3ccc(-c4c(C)noc4C)cc32)cc1 (stereo not drawn) [Compound 1.5, 5-(3,5-dimethylisoxazol-4-yl)-3-hydroxy-3-p-tolylindolin-2-one]",,180 nM,,285 nM
"Cc1cc(C2(O)C(=O)Nc3ccc(-c4c(C)noc4C)cc32)ccc1F (stereo not drawn) [Compound 1.6, 5-(3,5-dimethylisoxazol-4-yl)-3-(4-fluoro-3-methylphenyl)-3-hydroxyindolin-2-one]",,380 nM,,594 nM
"Cc1ccccc1C1(O)C(=O)Nc2ccc(-c3c(C)noc3C)cc21 (stereo not drawn) [Compound 1.7, 5-(3,5-dimethylisoxazol-4-yl)-3-hydroxy-3-o-tolylindolin-2-one]",,570 nM,,1500 nM
